Experimental data: patent publication US9765075B2, “Substituted bridged urea analogs as sirtuin modulators” (GLAXOSMITHKLINE LLC, priority 2013, dated 2017)
Where two headings read alike, the source gives them in different places.

Target: T1, SIRT1 (Homo sapiens, UniProt Q96EB6)
T1 sequence (Q96EB6 1-747): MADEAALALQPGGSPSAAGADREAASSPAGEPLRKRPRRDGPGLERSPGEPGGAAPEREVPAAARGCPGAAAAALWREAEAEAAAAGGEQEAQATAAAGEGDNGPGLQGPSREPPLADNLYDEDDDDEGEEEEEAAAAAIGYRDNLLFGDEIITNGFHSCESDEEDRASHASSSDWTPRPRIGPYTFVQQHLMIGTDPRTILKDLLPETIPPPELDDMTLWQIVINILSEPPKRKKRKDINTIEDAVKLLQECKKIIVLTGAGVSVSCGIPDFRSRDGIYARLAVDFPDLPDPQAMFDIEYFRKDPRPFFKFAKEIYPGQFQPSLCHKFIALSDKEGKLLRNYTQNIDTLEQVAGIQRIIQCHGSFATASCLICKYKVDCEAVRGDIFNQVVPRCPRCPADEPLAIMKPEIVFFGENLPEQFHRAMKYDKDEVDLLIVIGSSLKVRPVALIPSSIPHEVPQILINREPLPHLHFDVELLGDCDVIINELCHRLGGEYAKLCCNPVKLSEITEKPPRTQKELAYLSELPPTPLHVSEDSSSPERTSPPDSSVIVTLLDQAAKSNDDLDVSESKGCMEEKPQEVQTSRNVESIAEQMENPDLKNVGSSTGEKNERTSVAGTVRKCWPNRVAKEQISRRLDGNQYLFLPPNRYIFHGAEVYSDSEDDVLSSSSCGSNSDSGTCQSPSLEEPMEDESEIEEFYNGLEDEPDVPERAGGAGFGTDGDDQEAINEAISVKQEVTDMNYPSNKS
Assay: Trp mass spectrometry assay (SIRT1 activation)
Format: biochemical
Conditions: for Emax: percent maximum fold activation of SIRT1, read-out: Tryp % Fold Act
How it was run: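 Activation is expressed as EC1.5, the concentration raising activity 50% above DMSO control, and as maximum percent of control. Mass-spec readout was OAADPR or deacetylated Trp peptide after a formic-acid-quenched 25-min, 25 °C reaction: 10 nM bacterially expressed His-SIRT1, 0.5 μM acetyl-p53-derived peptide, 120 μM NAD+, pH 7.5 HEPES with […].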

[1] = Trp mass spectrometry assay, EC1.5 = concentration of test compound that results in 150% activation of SIRT1
[2] = concentration of test compound that results in 150% activation of SIRT1, Trp peptide substrate
[3] = Trp mass spectrometry assay, EC1.5 = concentration giving 150% activation of SIRT1

SMILES: COc1cc(NC(=O)N2c3nc(-c4cccc(OC(F)(F)F)c4)ccc3N3CC[C@H]2C3)ncn1 [Example 135]
- Tryp AVG EC1.5 (μM) [1]: A (EC1.5<1 μM)
- Emax (Trp mass spectrometry assay): ≥ 150%

SMILES: Cc1cncc(-c2ccc3c(n2)N(C(=O)Nc2cccnn2)[C@H]2CCCN3C2)c1 [Example 519]
- Tryp AVG EC1.5 (μM) [2]: A (EC1.5<1 μM)
- Emax (Trp peptide substrate): ≥ 150%

SMILES: O=C(Nc1cnccn1)N1c2nc(-c3cccc(C(F)(F)F)c3)ccc2N2C[C@@H](O)[C@H]1C2 [Example 645]
- Tryp AVG EC1.5 (μM) [3]: A (EC1.5<1 μM)
- Emax (Trp mass spectrometry assay): ≥ 150%

SMILES: O=C(Nc1ccccn1)N1c2nc(-c3cccc(C(F)(F)F)c3)ccc2N2CCC[C@@H]1C2 [Example 272]
- Tryp AVG EC1.5 (μM) [2]: B (EC1.5 1-25 μM)
- Emax (Trp peptide substrate): ≥ 150%

SMILES: O=C(Nc1ccncn1)N1c2nc(N3CCCC(C(F)(F)F)C3)ccc2N2CCC[C@H]1C2 (some centres unmarked) [Example 294]
- Tryp AVG EC1.5 (μM) [2]: B (EC1.5 1-25 μM)
- Emax (Trp peptide substrate): ≥ 150%

SMILES: COc1ccc(-c2ccc3c(n2)N(C(=O)Nc2cnccn2)[C@H]2CCN3C2)cn1 [Example 399]
- Tryp AVG EC1.5 (μM) [2]: B (EC1.5 1-25 μM)
- Emax (Trp peptide substrate): ≥ 150%

SMILES: Cc1cc(-c2ccc3c(n2)N(C(=O)Nc2ccncn2)[C@H]2CCN3C2)ccn1 [Example 468]
- Tryp AVG EC1.5 (μM) [2]: B (EC1.5 1-25 μM)
- Emax (Trp peptide substrate): ≥ 150%

SMILES: Cc1nc(NC(=O)N2c3nc(-c4cccc(Cl)c4)ccc3N3CC[C@H]2C3)sc1C [Example 102]
- Tryp AVG EC1.5 (μM) [1]: A (EC1.5<1 μM)
- Emax (Trp mass spectrometry assay): ≥ 150%

SMILES: O=C(Nc1cnccn1)N1c2nc(-c3ccnc(N4CCC(F)(F)C4)c3)ccc2N2CC[C@H]1C2 [Example 423]
- Tryp AVG EC1.5 (μM) [2]: A (EC1.5<1 μM)
- Emax (Trp peptide substrate): ≥ 150%

SMILES: N#Cc1ccccc1-c1ccc2c(n1)N(C(=O)Nc1ccccn1)[C@H]1CCCN2C1 [Example 449]
- Tryp AVG EC1.5 (μM) [2]: B (EC1.5 1-25 μM)
- Emax (Trp peptide substrate): ≥ 150%

SMILES: CS(=O)(=O)c1cncc(-c2ccc3c(n2)N(C(=O)Nc2ccccn2)[C@H]2CCN3C2)c1 [Example 328]
- Tryp AVG EC1.5 (μM) [2]: B (EC1.5 1-25 μM)
- Emax (Trp peptide substrate): ≥ 150%

SMILES: O=C(Nc1ccnnc1)N1c2nc(-c3cccc(Cl)c3)ccc2N2CC[C@H]1C2 [Example 120]
- Tryp AVG EC1.5 (μM) [1]: A (EC1.5<1 μM)
- Emax (Trp mass spectrometry assay): ≥ 150%

SMILES: O=C(Nc1cncc(F)c1)N1c2nc(-c3ccnc(N4CC[C@H](F)C4)c3)ccc2N2CC[C@H]1C2 [Example 475]
- Tryp AVG EC1.5 (μM) [2]: A (EC1.5<1 μM)
- Emax (Trp peptide substrate): ≥ 150%

SMILES: O=C(Nc1cccc(-c2cnco2)c1)N1c2nc(-c3cncc(Cl)c3)ccc2N2CCC1CC2 [Example 575]
- Tryp AVG EC1.5 (μM) [2]: A (EC1.5<1 μM)
- Emax (Trp peptide substrate): ≥ 150%

SMILES: COc1cc(NC(=O)N2c3nc(-c4ccnc(C)c4)ccc3N3CC[C@H]2C3)ncn1 [Example 240]
- Tryp AVG EC1.5 (μM) [2]: B (EC1.5 1-25 μM)
- Emax (Trp peptide substrate): ≥ 150%

SMILES: COc1cc(NC(=O)N2c3nc(-c4cccc(C(F)(F)F)c4)ccc3N3CCC[C@H]2C3)nc(OC)n1 [Example 31]
- Emax (Trp mass spectrometry assay): ≥ 150%

SMILES: O=C(C1CC1)N1CCC(c2cccc(NC(=O)N3c4nc(-c5cccc(C(F)(F)F)c5)ccc4N4CC[C@H]3C4)c2)C1 (some centres unmarked) [Example 637]
- Tryp AVG EC1.5 (μM) [3]: A (EC1.5<1 μM)
- Emax (Trp mass spectrometry assay): ≥ 150%

SMILES: Cc1cc(-c2ccc3c(n2)N(C(=O)Nc2cncc(C)n2)[C@H]2CCN3C2)ccn1 [Example 503]
- Tryp AVG EC1.5 (μM) [2]: A (EC1.5<1 μM)
- Emax (Trp peptide substrate): ≥ 150%

SMILES: CN1CCCN(c2ccc3c(n2)N(C(=O)Nc2ccncn2)[C@H]2CCCN3C2)CC1 [Example 484]
- Tryp AVG EC1.5 (μM) [2]: C (EC1.5>25 μM)
- Emax (Trp peptide substrate): < 150%

SMILES: O=C(Nc1ccccn1)N1c2cc(-c3cccc(C(F)(F)F)c3)ccc2N2CC[C@H]1C2 [Example 785]
- Tryp AVG EC1.5 (μM) [3]: C (EC1.5>25 μM)
- Emax (Trp mass spectrometry assay): < 150%

SMILES: Cc1cncc(NC(=O)N2c3nc(N4CC[C@H](N(C)C)C4)ccc3N3CC[C@H]2C3)c1 [Example 243]
- Tryp AVG EC1.5 (μM) [2]: C (EC1.5>25 μM)
- Emax (Trp peptide substrate): ≥ 150%

SMILES: CN(C)Cc1cccc(-c2ccc3c(n2)N(C(=O)Nc2ccccn2)[C@H]2CCN3C2)c1 [Example 343]
- Tryp AVG EC1.5 (μM) [2]: B (EC1.5 1-25 μM)
- Emax (Trp peptide substrate): ≥ 150%

SMILES: O=C(Nc1cncc(F)c1)N1c2nc(-c3ccnc(N4CCC(C(F)(F)F)C4)c3)ccc2N2CC[C@H]1C2 (some centres unmarked) [Example 410]
- Tryp AVG EC1.5 (μM) [2]: A (EC1.5<1 μM)
- Emax (Trp peptide substrate): ≥ 150%

SMILES: Cn1ncc2cc(NC(=O)N3c4nc(-c5cccc(C(F)(F)F)c5)ccc4N4CC[C@H]3C4)ccc21 [Example 87]
- Tryp AVG EC1.5 (μM) [1]: A (EC1.5<1 μM)
- Emax (Trp mass spectrometry assay): ≥ 150%

SMILES: O=C(Nc1cc(-c2cnco2)cc(-c2cnco2)c1)N1c2nc(-c3cccc(C(F)(F)F)c3)ccc2N2CC[C@H]1C2 [Example 743]
- Tryp AVG EC1.5 (μM) [3]: A (EC1.5<1 μM)
- Emax (Trp mass spectrometry assay): ≥ 150%

SMILES: O=C(Nc1ccccn1)N1c2nc(-c3ccnc(N4CCC(F)(F)C4)c3)ccc2N2CC[C@H]1C2 [Example 388]
- Tryp AVG EC1.5 (μM) [2]: A (EC1.5<1 μM)
- Emax (Trp peptide substrate): ≥ 150%

SMILES: O=C(O[C@@H]1CN2C[C@H]1N(C(=O)Nc1ccccn1)c1nc(-c3cccc(C(F)(F)F)c3)ccc12)c1ccccc1 [Example 603]
- Tryp AVG EC1.5 (μM) [2]: C (EC1.5>25 μM)
- Emax (Trp peptide substrate): < 150%

SMILES: CN(C)c1ccc(-c2ccc3c(n2)N(C(=O)Nc2ccccn2)[C@H]2CCN3C2)cn1 [Example 345]
- Tryp AVG EC1.5 (μM) [2]: B (EC1.5 1-25 μM)
- Emax (Trp peptide substrate): ≥ 150%

SMILES: NCC#Cc1ccc(NC(=O)N2c3nc(-c4cccc(C(F)(F)F)c4)ccc3N3CC[C@H]2C3)cc1-c1cnco1 [Example 766]
- Tryp AVG EC1.5 (μM) [3]: A (EC1.5<1 μM)
- Emax (Trp mass spectrometry assay): ≥ 150%

SMILES: CCCn1cc(-c2cccc(NC(=O)N3c4nc(-c5cccc(C(F)(F)F)c5)ccc4N4CC[C@H]3C4)n2)cn1 [Example 656]
- Tryp AVG EC1.5 (μM) [3]: A (EC1.5<1 μM)
- Emax (Trp mass spectrometry assay): ≥ 150%

SMILES: Cc1nc(NC(=O)N2c3nc(-c4cccc(N5CCOCC5)c4)ccc3N3CCC[C@H]2C3)sc1C [Example 537]
- Tryp AVG EC1.5 (μM) [2]: B (EC1.5 1-25 μM)
- Emax (Trp peptide substrate): ≥ 150%

SMILES: O=C(Nc1ccccn1)N1c2nc(-c3cccc(C(F)(F)F)c3)ccc2N2CCC[C@H]1C2 [Example 820]
- Tryp AVG EC1.5 (μM) [3]: A (EC1.5<1 μM)
- Emax (Trp mass spectrometry assay): ≥ 150%

SMILES: O=C(Nc1ccccn1)N1c2nc(-c3ccccc3C(F)(F)F)ccc2N2CC[C@H]1C2 [Example 137]
- Tryp AVG EC1.5 (μM) [1]: C (EC1.5>25 μM)
- Emax (Trp mass spectrometry assay): < 150%

SMILES: CC(=O)NCc1ccc(NC(=O)N2c3nc(-c4cccc(C(F)(F)F)c4)ccc3N3CCC[C@H]2C3)cc1 [Example 790]
- Tryp AVG EC1.5 (μM) [3]: A (EC1.5<1 μM)
- Emax (Trp mass spectrometry assay): ≥ 150%

SMILES: O=C(Nc1ccccn1)N1c2nc(-c3cccc(Cl)c3)ccc2N2C[C@@H](O)[C@H]1C2 [Example 675]
- Tryp AVG EC1.5 (μM) [3]: B (EC1.5 1-25 μM)
- Emax (Trp mass spectrometry assay): ≥ 150%

SMILES: O=C1C=CC2=C(c3ccc(NC(=S)NCc4ccc(NC(=O)N5c6nc(-c7cccc(C(F)(F)F)c7)ccc6N6CC[C@H]5C6)cc4)cc3C(=O)O)C3C=CC(O)=CC3OC2=C1 (some centres unmarked) [Example 530]
- Tryp AVG EC1.5 (μM) [2]: A (EC1.5<1 μM)
- Emax (Trp peptide substrate): ≥ 150%

SMILES: O=C(NCCc1ccccn1)N1c2nc(-c3cccc(C(F)(F)F)c3)ccc2N2CC[C@H]1C2 [Example 614]
- Tryp AVG EC1.5 (μM) [2]: B (EC1.5 1-25 μM)
- Emax (Trp peptide substrate): ≥ 150%

SMILES: CC(C)(C)c1nnc(NC(=O)N2c3nc(-c4cccc(C(F)(F)F)c4)ccc3N3CC[C@H]2C3)s1 [Example 649]
- Tryp AVG EC1.5 (μM) [3]: B (EC1.5 1-25 μM)
- Emax (Trp mass spectrometry assay): ≥ 150%

SMILES: CS(=O)(=O)c1cncc(-c2ccc3c(n2)N(C(=O)Nc2cncc(F)c2)[C@H]2CCCN3C2)c1 [Example 377]
- Tryp AVG EC1.5 (μM) [2]: A (EC1.5<1 μM)
- Emax (Trp peptide substrate): ≥ 150%

SMILES: O=C(Nc1cnccn1)N1c2nc(-c3cccc(C(F)(F)F)c3)ccc2N2CC[C@H]1C2 [Example 10]
- Emax (Trp mass spectrometry assay): ≥ 150%

SMILES: O=C(Nc1ccccn1)N1c2nc(-c3cccnc3)ccc2N2CCC[C@H]1C2 [Example 441]
- Tryp AVG EC1.5 (μM) [2]: B (EC1.5 1-25 μM)
- Emax (Trp peptide substrate): ≥ 150%
